“Also recorded” adds a separate entry of the source.

The results in this text go back to patent US20240043859A1, “HERBICIDE-RESISTANT PROTEIN, AND GENE AND USE THEREOF” (QINGDAO KINGAGROOT CHEMICAL COMPOUND CO., LTD., priority 2020, published 2024).

The target in one assay is T1, AAD-12 (Delftia acidovorans, UniProt P83309).
T1 construct: made in house; host or cells: E. coli BL21(DE3)
The assay is described as follows: Degradation activities of AAD-12 on phenoxy acetic acid herbicides by spectrophotometry (A510). The class given is biochemical, Comamonas acidovorans. The protocol:
As reported in literature (Fukomori and Flausinger, Purification and characterization of 2,4-dichlorophenoxyacetate/alpha-ketoglutarate dioxygenase Journal of Biological Chemistry (1993) 268(32): 24311-24317), the constructed expression vector pET15b-AAD12 was transformed into E. coli BL21(DE3) and induced by IPTG for expression. After cells were collected and lysed, Ni-NTA column was used for purification and the purity of the protein was analyzed by SDS-PAGE.
Since phenolic products were produced by AAD-12-substrate catalytic reaction, 4-aminoantipyrine and potassium ferricyanide could be used to develop color with the products in an alkaline environment to generate red products with absorption at 510 nm, and the relevant parameters were directly read with a microplate reader.

A further assay relates to Arabidopsis thaliana. The assay is described as follows: Herbicide resistance of transgenic Arabidopsis thaliana seedlings on plate medium (root growth). The class given is in vivo. The settings on record: plate medium: 2,4-D 0.3 μmol; 2,4-DB sodium 0.7 μmol; MCPA 0.1 μmol. As for the experimental part:
Expression in Arabidopsis thaliana was regulated by its AtUbi10 Arabidopsis thaliana ubiquitin promoter and the MAS (mannopine synthase) terminator. Hygromycin resistance gene (HygR=hpt) served as the selection marker.
Preparation of Agrobacterium infection solution: An activated Agrobacterium (GV3101) monoclone was picked and inoculated in 30 ml YEP liquid medium [yeast powder 10 g/L, tryptone 10 g/L, NaCl 5 g/L, 25 mg/L Rifampicin and 50 mg/L Kanamycin], shaking-cultured at 200 rmp/min, 28° C. overnight until the OD600 was about 1.0-1.5, then centrifuged at 6000 rmp/min for 10 min to collect the bacteria, and the supernatant was discarded. Arabidopsis thaliana infection solution (sucrose 50 g/L, Silwet L-77 300 μL/L, no need to adjust pH) was used to resuspend the cells to OD600=0.8 for later use.
Genetic transformation of Arabidopsis thaliana by flower dipping: Before transformation of Arabidopsis thaliana plants, attentions were paid to whether the plants were growing well, the inflorescences were abundant, and no stress response occurred. The first transformation was performed when plants were about 20 cm high. Plants could be properly watered if the soil was dry. The grown siliques were cut off with scissors the day before transformation. The inflorescences of the plants to be transformed were soaked in the above-mentioned Agrobacterium solution for 30 seconds to 1 minute, which was stirred gently during the period. And a layer of liquid film should appear on the infiltrated plant. The transformed plants were cultured in a dark environment for 24 hours, and then taken out and grown in a normal light environment. A second transformation could be performed in the same way a week later. […]

The mark [1] stands for this setting: AAD-12 enzyme with substrate, chromogenic detection at 510 nm.

T1 sequence (P83309 2-292, added parts left off): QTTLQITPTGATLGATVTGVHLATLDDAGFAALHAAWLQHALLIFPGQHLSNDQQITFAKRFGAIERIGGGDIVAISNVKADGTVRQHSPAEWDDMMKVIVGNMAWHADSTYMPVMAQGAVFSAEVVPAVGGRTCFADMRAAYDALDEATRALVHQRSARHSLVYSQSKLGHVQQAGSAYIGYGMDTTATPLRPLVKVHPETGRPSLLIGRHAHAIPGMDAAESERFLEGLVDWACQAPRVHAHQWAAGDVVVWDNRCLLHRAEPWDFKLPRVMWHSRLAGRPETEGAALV

In the case of `O=C(O)COc1ccc(Cl)cc1Cl` [2,4-D, (2,4-dichlorophenoxy)acetic acid, reference compound], the “Degradation activity of expressed AAD-12 enzyme on the substrate” value on AAD-12 is on record as “degradation activities”. Moreover, on AAD-12 (setting [1]), the “A510 of reaction group, Reaction 1” value amounted to 0.2865; the “A510 of reaction group, Reaction 2” value is recorded as 0.2766; the “A510 of reaction group, Reaction 3” value is listed as 0.2652. In addition, on AAD-12 (reaction group versus blank group), the “Increased A510” value is given as “+0.130”. The “Effect of the herbicide on seminal roots of wild-type Col-0” value in the assay with Arabidopsis thaliana was “uncapable of growing roots; also recorded: seminal roots are inhibited; also recorded: seminal roots are not able to grow”.
